Measurements: patent US8022209B2, “Substituted nitrogen-containing heteroaryl derivatives useful as modulators of the histamine H4 receptor” (Janssen Pharmaceutica NV, priority 2007, dated 2011)

Target: T1, human histamine H4 receptor (Homo sapiens, UniProt Q9H3N8)
T1 construct: expressed in transfected cells; host or cells: SK-N-MC cells or COS7 cells, transiently transfected with pH4R; cell membranes
Assay: Binding Assay on Recombinant Human Histamine H4 Receptor
Details: competition binding vs 3H-histamine (5 nM, KD 5 nM), membranes of SK-N-MC or COS7 cells transfected with human H4R; Cheng-Prusoff; average of results obtained
Protocol: Binding Assay on Recombinant Human Histamine H4 Receptor
SK-N-MC cells or COS7 cells were transiently transfected with pH4R and grown in 150 cm^2 tissue culture dishes. Cells were washed with saline solution, scraped with a cell scraper and collected by centrifugation (1000 rpm, 5 min). Cell membranes were prepared by homogenization of the cell pellet in 20 mM Tris-HCl with a polytron tissue homogenizer for 10 sec at high speed. Homogenate was centrifuged at 1000 rpm for 5 min at 4° C. The supernatant was then collected and centrifuged at 20,000×g for 25 min at 4° C. The final pellet was resuspended in 50 mM Tris-HCl. Cell membranes were incubated with ^3H-histamine (5-70 nM) in the presence or absence of excess histamine (10,000 nM). Incubation occurred at room temperature for 45 min. Membranes were harvested by rapid filtration over Whatman GF/C filters and washed 4 times with ice-cold 50 mM Tris HCl. Filters were then dried, mixed with scintillant and counted for radioactivity. SK-N-MC or COS7 cells expressing human histamine H4 receptor were used to measure the affinity of binding of other compounds and their ability to displace ^3H-ligand binding by incubating the above-described reaction in the presence of various concentrations of inhibitor or compound to be tested. For competition binding studies using ^3H-histamine, Ki values were calculated, based on an experimentally determined KD value of 5 nM and a ligand concentration of 5 nM, according to Y. C.

SMILES | Ki [nM]
CN1CCN(c2ncnc(-c3ccsc3)n2)CC1 [compound 1, 2-(4-Methyl-piperazin-1-yl)-4-thiophen-3-yl-[1,3,5]triazine] | 44
CN1CCN(c2ncnc(-c3cccs3)n2)CC1 [compound 2, 2-(4-Methyl-piperazin-1-yl)-4-thiophen-2-yl-[1,3,5]triazine] | 76
Cc1ccc(-c2ncnc(N3CCN(C)CC3)n2)cc1F [compound 3, 2-(3-Fluoro-4-methyl-phenyl)-4-(4-methyl-piperazin-1-yl)-[1,3,5]triazine] | 22
Cc1ccc(-c2ncnc(N3CCN(C)CC3)n2)cc1 [compound 4, 2-(4-Methyl-piperazin-1-yl)-4-p-tolyl-[1,3,5]triazine] | 75
CN1CCN(c2ncnc(-c3ccc(F)c(F)c3)n2)CC1 [compound 5, 2-(3,4-Difluoro-phenyl)-4-(4-methyl-piperazin-1-yl)-[1,3,5]triazine] | 33
CN1CCN(c2ncnc(-c3ccoc3)n2)CC1 [compound 6, 2-Furan-3-yl-4-(4-methyl-piperazin-1-yl)-[1,3,5]triazine] | 115
CN1CCN(c2ncnc(-c3cccc(F)c3)n2)CC1 [compound 7, 2-(3-Fluoro-phenyl)-4-(4-methyl-piperazin-1-yl)-[1,3,5]triazine] | 87
CN1CCN(c2ncnc(-c3cccc(C(F)(F)F)c3)n2)CC1 [compound 8, 2-(4-Methyl-piperazin-1-yl)-4-(3-trifluoromethyl-phenyl)-[1,3,5]triazine] | 73
CN1CCN(c2ncnc(-c3cc(Br)cs3)n2)CC1 [compound 9] | 22
CN1CCN(c2ncnc(-c3ccc(Br)cc3)n2)CC1 [compound 10, 2-(4-Bromo-phenyl)-4-(4-methyl-piperazin-1-yl)-[1,3,5]triazine] | 36
CN1CCN(c2ncnc(-c3cc(F)c(F)c(F)c3)n2)CC1 [compound 11, 2-(4-Methyl-piperazin-1-yl)-4-(3,4,5-trifluoro-phenyl)-[1,3,5]triazine] | 7
CN1CCN(c2ncnc(-c3ccc(F)cc3)n2)CC1 [compound 12, 2-(4-Fluoro-phenyl)-4-(4-methyl-piperazin-1-yl)-[1,3,5]triazine] | 35
CN1CCN(c2ncnc(-c3ccc(Cl)cc3)n2)CC1 [compound 13, 2-(4-Chloro-phenyl)-4-(4-methyl-piperazin-1-yl)-[1,3,5]triazine] | 10
CN1CCN(c2ncnc(-c3ccc(Cl)c(Cl)c3)n2)CC1 [compound 14, 2-(3,4-Dichloro-phenyl)-4-(4-methyl-piperazin-1-yl)-[1,3,5]triazine] | 30
CN1CCN(c2ncnc(-c3sccc3Br)n2)CC1 [compound 15, 2-(3-Bromo-thiophen-2-yl)-4-(4-methyl-piperazin-1-yl)-[1,3,5]triazine] | 2
CN1CCN(c2ncnc(-c3ccc(Cl)nc3)n2)CC1 [compound 16, 2-(6-Chloro-pyridin-3-yl)-4-(4-methyl-piperazin-1-yl)-[1,3,5]triazine] | 50
CN1CCN(c2ncnc(-c3sccc3Cl)n2)CC1 [compound 17, 2-(3-Chloro-thiophen-2-yl)-4-(4-methyl-piperazin-1-yl)-[1,3,5]triazine] | 8
CN1CCN(c2ncnc(-c3ccc(Br)s3)n2)CC1 [compound 18, 2-(5-Bromo-thiophen-2-yl)-4-(4-methyl-piperazin-1-yl)-[1,3,5]triazine] | 37
CN1CCN(c2ncnc(-c3cccnc3)n2)CC1 [compound 19, 2-(4-Methyl-piperazin-1-yl)-4-pyridin-3-yl-[1,3,5]triazine] | 172
CN1CCN(c2ncnc(-c3ccncc3)n2)CC1 [compound 20, 2-(4-Methyl-piperazin-1-yl)-4-pyridin-4-yl-[1,3,5]triazine] | 950
CN1CCN(c2ncnc(-c3cc4ccccc4s3)n2)CC1 [compound 21, 2-Benzo[b]thiophen-2-yl-4-(4-methyl-piperazin-1-yl)-[1,3,5]triazine] | 2330
CN1CCN(c2ccnc(-c3cccc(-c4ccc(C(=O)N5CCOCC5)cc4)c3)c2)CC1 [compound 63] | ≥ 10000
CNC1CCN(c2ccnc(-c3ccsc3)c2)C1 (stereo not drawn) [compound 66] | 216
CN1CCN(c2ncnc(-c3cccc(C#N)c3)n2)CC1 [compound 111, 3-[4-(4-Methyl-piperazin-1-yl)-[1,3,5]triazin-2-yl]-benzonitrile] | 2010
CN1CCN(c2ncnc(-c3ccc(-c4ccccn4)s3)n2)CC1 [compound 131, 2-(4-Methyl-piperazin-1-yl)-4-(5-pyridin-2-yl-thiophen-2-yl)-[1,3,5]triazine] | > 10000

The next lines start with the values.

Ki [nM] | SMILES
757 | Cc1cc(-c2ncnc(N3CCN(C)CC3)n2)c(C(F)(F)F)o1 [compound 22, 2-(4-Methyl-piperazin-1-yl)-4-(5-methyl-2-trifluoromethyl-furan-3-yl)-[1,3,5]triazine]
31 | Cc1nc(-c2sccc2Br)nc(N2CCN(C)CC2)n1 [compound 23, 2-(3-Bromo-thiophen-2-yl)-4-methyl-6-(4-methyl-piperazin-1-yl)-[1,3,5]triazine]
267 | CN1CCCN(c2ncnc(-c3sccc3Br)n2)CC1 [compound 24, 1-[4-(3-Bromo-thiophen-2-yl)-[1,3,5]triazin-2-yl]-4-methyl-[1,4]diazepane]
66 | CN1CCN(c2ncnc(-c3ccc(Cl)s3)n2)CC1 [compound 25, 2-(5-Chloro-thiophen-2-yl)-4-(4-methyl-piperazin-1-yl)-[1,3,5]triazine]
37 | CN1CCN(c2ccnc(-c3ccsc3)c2)CC1 [compound 26]
87 | CN1CCN(c2ccnc(-c3ccco3)c2)CC1 [compound 27]
25 | CN1CCN(c2ccnc(-c3ccoc3)c2)CC1 [compound 28]
64 | Cc1cscc1-c1cc(N2CCN(C)CC2)ccn1 [compound 29]
138 | CN1CCN(c2ccnc(-c3ccc(F)c(Cl)c3)c2)CC1 [compound 30]
75 | Cc1ccc(-c2cc(N3CCN(C)CC3)ccn2)cc1F [compound 31]
129 | Cc1ccc(-c2cc(N3CCN(C)CC3)ccn2)cc1 [compound 32]
577 | CN1CCN(c2ccnc(-c3cccc(O)c3)c2)CC1 [compound 33]
90 | CN1CCN(c2ccnc(-c3ccc(F)c(F)c3)c2)CC1 [compound 34]
130 | CN1CCN(c2ccnc(-c3cccc(Cl)c3Cl)c2)CC1 [compound 35]
65 | Cc1ccc(-c2cc(N3CCN(C)CC3)ccn2)cc1Cl [compound 37]
52 | CN1CCN(c2ccnc(-c3cccc(-c4ccccc4)c3)c2)CC1 [compound 38]

Ki [nM] | SMILES
433 | CN1CCCN(c2ccnc(-c3ccsc3)c2)CC1 [compound 39]
867 | CN1CCC(N(C)c2ccnc(-c3ccsc3)c2)C1 (stereo not drawn) [compound 40]
2600 | CN(C)CCN(C)c1ccnc(-c2ccsc2)c1 [compound 41]
767 | CN(C)C1CCN(c2ccnc(-c3ccsc3)c2)C1 (stereo not drawn) [compound 42]
397 | CN1CCCN(c2cc(-c3cccs3)ncn2)CC1 [compound 68]
1930 | CN1CCN(c2ncnc(-c3cccc(-c4ccccc4)c3)n2)CC1 [compound 108, 2-Biphenyl-3-yl-4-(4-methyl-piperazin-1-yl)-[1,3,5]triazine]
1510 | CN1CCN(c2ncnc(-c3cccc4ccccc34)n2)CC1 [compound 112, 2-(4-Methyl-piperazin-1-yl)-4-naphthalen-1-yl-[1,3,5]triazine]
111 | Cc1cc(-c2ncnc(N3CCN(C)CC3)n2)ccc1F [compound 115, 2-(4-Fluoro-3-methyl-phenyl)-4-(4-methyl-piperazin-1-yl)-[1,3,5]triazine]
> 10000 | CN1CCN(c2ncnc(-c3ccc(-c4ccccc4)cc3)n2)CC1 [compound 116, 2-Biphenyl-4-yl-4-(4-methyl-piperazin-1-yl)-[1,3,5]triazine]
> 10000 | CN1CCN(c2ncnc(-c3ccc4ccccc4c3)n2)CC1 [compound 117, 2-(4-Methyl-piperazin-1-yl)-4-naphthalen-2-yl-[1,3,5]triazine]
128 | CN1CCN(c2ncnc(-c3ccccc3)n2)CC1 [compound 118, 2-(4-Methyl-piperazin-1-yl)-4-phenyl-[1,3,5]triazine]
107 | CN1CCN(c2ncnc(-c3ccc([N+](=O)[O-])cc3)n2)CC1 [compound 121, 2-(4-Methyl-piperazin-1-yl)-4-(4-nitro-phenyl)-[1,3,5]triazine]
94 | CN1CCN(c2ncnc(-c3ccc(F)cc3F)n2)CC1 [compound 122, 2-(2,4-Difluoro-phenyl)-4-(4-methyl-piperazin-1-yl)-[1,3,5]triazine]
60 | Cc1ccc(F)cc1-c1ncnc(N2CCN(C)CC2)n1 [compound 123, 2-(5-Fluoro-2-methyl-phenyl)-4-(4-methyl-piperazin-1-yl)-[1,3,5]triazine]
443 | CN1CCN(c2ccnc(-c3csc(C#N)c3)c2)CC1 [compound 129]
643 | COc1cscc1-c1ncnc(N2CCN(C)CC2)n1 [compound 130, 2-(4-Methoxy-thiophen-3-yl)-4-(4-methyl-piperazin-1-yl)-[1,3,5]triazine]
